Source: patent publication US20250176877A1, “SENSING PLATFORMS WITH NEEDLES AND METHODS OF FABRICATION AND USE” (Purdue Research Foundation, priority 2023, published 2025)

Tested on: HL-1 cells
Conditions: 100 nM nifedipine, control without drug 0.85±0.17 mV
Description: The surface of the sensing platform 10 was coated with a gelatin solution to ensure cell adhesion, and no additional functionalization agents were used. […] To further improve the adhesion of the needles 12 to the cell membrane, mechanoporation was conducted by centrifuging at 500 rpm for one minute. Electroporation was followed using a series of biphasic square pulses to facilitate electrical access to the intracellular region. […] In order to showcase the live imaging capabilities through the optical transparency of the sensing platform 10, concurrent calcium ion (Ca^2+) flux imaging was simultaneously performed using an inverted microscope—a standard tool that is compatible only with transparent substrates. For Ca^2+ flux imaging, Fluo-8, a fluorescent calcium indicator, was loaded into the cells for live imaging, and the alteration in fluorescent intensity (AF) was measured and compared with the resting intensity (F0).
To evaluate the signal quality of the sensing platform 10, a comparative analysis of signal amplitude was conducted in comparison to a control group including the needles on a Si wafer. The measurements were limited to the cells that had been beating at approximately 1 Hz for at least one day, as the recorded amplitude and beating interval can vary with cell culture age.

COC(=O)C1=C(C)NC(C)=C(C(=O)OC)C1c1ccccc1[N+](=O)[O-] [nifedipine]
peak amplitude of action potential: 0.55±0.12 mV
